Assay results as given in ChEMBL document CHEMBL4765492, “Discovery of GLPG2451, a Novel Once Daily Potentiator for the Treatment of Cystic Fibrosis” (J Med Chem, 2021).
Values after ≈ are worked out from the molar mass of the structure shown. Active and inactive are the calls of the source. No cut-off for these calls is given here.

Tests used:
[1] = Permeability of compound across apical to basolateral membrane in MDCK cells; assay type: ADME, cell-based, Canis lupus familiaris; conditions: dog, read-out: permeability
[2] = AUC in rat at 5 mg/kg, po; assay type: ADME, organism-based; design: dose 5 mg/kg; conditions: in vivo
[3] = Unbound intrinsic clearance in rat liver microsomes; assay type: ADME, Microsome
[4] = Unbound intrinsic clearance in rat hepatocytes; assay type: ADME, cell-based, Hepatocyte
[5] = Permeability efflux ratio in MDCK cells; assay type: ADME, cell-based, Canis lupus familiaris; conditions: dog
[6] = biological target: Cystic fibrosis transmembrane conductance regulator (Homo sapiens, UniProt P13569, F508DEL); assay: Potentiation of CFTR F508del mutant (unknown origin) expressed in human CFBE41o- cells co-expressing YFP incubated for 10 mins by halide potentiator assay; assay type: cell-based
Cystic fibrosis transmembrane conductance regulator (Homo sapiens, UniProt P13569, F508DEL), sequence (P13569 as listed by the source): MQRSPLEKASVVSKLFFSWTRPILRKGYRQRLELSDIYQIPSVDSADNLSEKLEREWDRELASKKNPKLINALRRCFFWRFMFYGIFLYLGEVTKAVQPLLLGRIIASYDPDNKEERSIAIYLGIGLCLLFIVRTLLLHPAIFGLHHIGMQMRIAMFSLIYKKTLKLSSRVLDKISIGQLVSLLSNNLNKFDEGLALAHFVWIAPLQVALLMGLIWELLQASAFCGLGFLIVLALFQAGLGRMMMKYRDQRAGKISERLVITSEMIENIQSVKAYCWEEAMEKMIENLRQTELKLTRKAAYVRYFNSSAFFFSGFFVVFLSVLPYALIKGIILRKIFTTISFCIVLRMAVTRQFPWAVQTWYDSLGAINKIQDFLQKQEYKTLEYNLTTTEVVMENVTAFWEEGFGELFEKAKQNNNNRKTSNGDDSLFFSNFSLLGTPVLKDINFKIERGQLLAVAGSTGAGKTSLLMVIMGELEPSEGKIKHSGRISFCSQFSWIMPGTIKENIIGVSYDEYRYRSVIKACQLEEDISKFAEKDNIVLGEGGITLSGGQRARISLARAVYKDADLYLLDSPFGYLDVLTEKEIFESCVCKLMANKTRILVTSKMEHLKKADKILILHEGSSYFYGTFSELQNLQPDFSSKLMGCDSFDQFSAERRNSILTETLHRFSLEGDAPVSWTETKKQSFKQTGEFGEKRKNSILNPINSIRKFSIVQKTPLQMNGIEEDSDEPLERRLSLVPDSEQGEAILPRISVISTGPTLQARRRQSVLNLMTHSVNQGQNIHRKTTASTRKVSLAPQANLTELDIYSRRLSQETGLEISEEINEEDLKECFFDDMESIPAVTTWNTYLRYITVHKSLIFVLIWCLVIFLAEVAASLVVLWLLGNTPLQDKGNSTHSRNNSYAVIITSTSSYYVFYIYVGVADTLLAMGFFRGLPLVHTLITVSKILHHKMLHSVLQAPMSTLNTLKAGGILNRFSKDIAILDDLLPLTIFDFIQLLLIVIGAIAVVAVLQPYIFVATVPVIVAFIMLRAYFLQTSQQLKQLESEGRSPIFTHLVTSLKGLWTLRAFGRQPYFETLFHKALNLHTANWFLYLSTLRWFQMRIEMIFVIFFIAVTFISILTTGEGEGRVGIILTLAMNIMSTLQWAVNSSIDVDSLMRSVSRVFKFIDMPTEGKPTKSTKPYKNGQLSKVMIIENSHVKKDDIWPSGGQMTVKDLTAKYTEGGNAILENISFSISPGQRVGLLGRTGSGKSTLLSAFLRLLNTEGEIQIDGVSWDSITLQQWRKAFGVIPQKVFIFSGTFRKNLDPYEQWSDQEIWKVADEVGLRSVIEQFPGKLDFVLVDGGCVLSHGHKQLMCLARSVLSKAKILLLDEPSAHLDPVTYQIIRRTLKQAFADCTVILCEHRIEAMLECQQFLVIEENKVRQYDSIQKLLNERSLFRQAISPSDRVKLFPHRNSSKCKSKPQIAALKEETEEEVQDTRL

[7] = Unbound clearance in Sprague-Dawley rat at 1 mg/kg, iv; assay type: ADME, organism-based; conditions: in vivo
[8] = Clearance in Sprague-Dawley rat at 1 mg/kg, iv; assay type: ADME, organism-based; conditions: in vivo
[9] = Volume of distribution at steady state in Sprague-Dawley rat at 1 mg/kg, iv; assay type: ADME, organism-based; conditions: in vivo, read-out: Vdss
[10] = Half life in Sprague-Dawley rat at 1 mg/kg, iv; assay type: ADME, organism-based; conditions: in vivo
[11] = Unbound intrinsic clearance in human liver microsomes; assay type: ADME, Microsome
[12] = system: Cystic fibrosis transmembrane conductance regulator (Homo sapiens), P13569 [G551D]; assay: Potentiation of CFTR G551D mutant (unknown origin) expressed in human HEK293 cells co-expressing YFP incubated for 10 mins by halide potentiator assay relative to control; assay type: cell-based; conditions: filed as activator
Cystic fibrosis transmembrane conductance regulator (Homo sapiens), P13569 [G551D], sequence (P13569 whole entry G551D): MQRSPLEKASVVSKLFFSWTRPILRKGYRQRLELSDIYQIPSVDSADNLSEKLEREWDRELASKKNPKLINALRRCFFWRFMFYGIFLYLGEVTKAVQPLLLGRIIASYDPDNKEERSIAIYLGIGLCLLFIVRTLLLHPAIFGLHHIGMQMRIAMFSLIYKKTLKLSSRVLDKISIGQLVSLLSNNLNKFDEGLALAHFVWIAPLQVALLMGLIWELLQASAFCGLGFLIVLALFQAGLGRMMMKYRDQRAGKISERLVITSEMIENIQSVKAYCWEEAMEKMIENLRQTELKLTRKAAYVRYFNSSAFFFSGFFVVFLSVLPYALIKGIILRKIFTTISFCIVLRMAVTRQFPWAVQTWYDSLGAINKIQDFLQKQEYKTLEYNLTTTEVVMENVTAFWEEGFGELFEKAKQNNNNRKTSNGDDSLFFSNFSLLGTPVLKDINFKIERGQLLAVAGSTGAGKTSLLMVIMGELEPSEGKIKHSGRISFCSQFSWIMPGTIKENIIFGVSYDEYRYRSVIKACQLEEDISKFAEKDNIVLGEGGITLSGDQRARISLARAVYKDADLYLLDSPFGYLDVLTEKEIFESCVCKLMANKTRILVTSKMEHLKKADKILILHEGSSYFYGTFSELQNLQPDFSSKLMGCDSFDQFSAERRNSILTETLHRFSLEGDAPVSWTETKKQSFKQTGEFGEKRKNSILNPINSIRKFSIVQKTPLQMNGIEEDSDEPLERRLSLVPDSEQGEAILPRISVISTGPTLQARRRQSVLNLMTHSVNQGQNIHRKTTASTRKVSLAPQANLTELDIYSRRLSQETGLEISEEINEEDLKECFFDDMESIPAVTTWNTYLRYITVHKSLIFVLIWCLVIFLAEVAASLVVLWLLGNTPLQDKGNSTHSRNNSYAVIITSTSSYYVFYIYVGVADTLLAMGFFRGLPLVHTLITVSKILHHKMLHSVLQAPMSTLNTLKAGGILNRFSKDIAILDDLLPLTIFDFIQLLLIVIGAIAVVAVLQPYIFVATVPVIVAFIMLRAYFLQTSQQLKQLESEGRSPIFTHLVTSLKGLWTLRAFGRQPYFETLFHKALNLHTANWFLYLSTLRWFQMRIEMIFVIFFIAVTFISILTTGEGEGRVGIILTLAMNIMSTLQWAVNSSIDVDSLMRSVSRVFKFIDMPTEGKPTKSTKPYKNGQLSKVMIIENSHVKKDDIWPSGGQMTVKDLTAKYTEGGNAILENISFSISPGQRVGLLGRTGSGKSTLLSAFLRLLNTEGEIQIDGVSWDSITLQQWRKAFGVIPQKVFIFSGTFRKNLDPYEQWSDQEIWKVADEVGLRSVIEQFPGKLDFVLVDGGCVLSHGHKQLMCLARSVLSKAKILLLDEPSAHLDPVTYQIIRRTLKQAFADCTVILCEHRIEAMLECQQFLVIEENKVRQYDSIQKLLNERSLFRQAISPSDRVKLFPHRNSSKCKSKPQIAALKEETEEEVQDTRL

[13] = Clearance in rat at 1 mg/kg, iv relative to hepatic blood flow; assay type: ADME, organism-based; conditions: in vivo
[14] = Oral bioavailability in rat at 5 mg/kg; assay type: ADME, organism-based; conditions: in vivo
[15] = biological target: Cystic fibrosis transmembrane conductance regulator (Homo sapiens, UniProt P13569, G551D); assay: Potentiation of CFTR G551D mutant (unknown origin) expressed in human HEK293 cells co-expressing YFP incubated for 10 mins by halide potentiator assay; assay type: cell-based
Cystic fibrosis transmembrane conductance regulator (Homo sapiens, UniProt P13569, G551D), sequence (P13569 whole entry G551D): as above

[16] = Kinetic aqueous solubility of the compound at pH 7.4; assay type: physicochemical; conditions: buffer, read-out: Kinetic_solubility
[17] = biological target: T1, Nuclear receptor subfamily 1 group I member 2 (Homo sapiens, UniProt O75469); assay: Activation of PXR (unknown origin) at 10 uM by CYP450 induction assay relative to rifampicin; assay type: ADME
T1 sequence (O75469 whole entry): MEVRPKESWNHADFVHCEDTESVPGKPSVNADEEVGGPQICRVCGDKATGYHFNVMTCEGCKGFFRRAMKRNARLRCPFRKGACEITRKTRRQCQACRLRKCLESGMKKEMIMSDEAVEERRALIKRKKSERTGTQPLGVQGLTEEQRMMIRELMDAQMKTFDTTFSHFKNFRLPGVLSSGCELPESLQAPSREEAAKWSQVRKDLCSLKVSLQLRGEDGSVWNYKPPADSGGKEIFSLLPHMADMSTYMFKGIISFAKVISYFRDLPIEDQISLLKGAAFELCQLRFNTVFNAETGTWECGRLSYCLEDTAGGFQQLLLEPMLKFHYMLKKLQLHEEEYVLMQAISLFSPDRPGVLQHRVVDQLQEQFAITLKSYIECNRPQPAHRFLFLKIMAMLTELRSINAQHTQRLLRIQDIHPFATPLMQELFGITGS

[18] = Inhibition of CYP450 (unknown origin); assay type: ADME; conditions: human
[19] = system: Cystic fibrosis transmembrane conductance regulator (Homo sapiens), P13569 [F508del,G551D]; assay: Potentiation of CFTR F508del/G551D mutant in human HBE cells assessed as increase in channel current at 10 nM to 1000 nM incubated for 20 mins by Ussing chamber assay; assay type: cell-based; conditions: Primary bronchial epithelial cell, filed as activator
Cystic fibrosis transmembrane conductance regulator (Homo sapiens), P13569 [F508del,G551D], sequence (P13569 as listed by the source): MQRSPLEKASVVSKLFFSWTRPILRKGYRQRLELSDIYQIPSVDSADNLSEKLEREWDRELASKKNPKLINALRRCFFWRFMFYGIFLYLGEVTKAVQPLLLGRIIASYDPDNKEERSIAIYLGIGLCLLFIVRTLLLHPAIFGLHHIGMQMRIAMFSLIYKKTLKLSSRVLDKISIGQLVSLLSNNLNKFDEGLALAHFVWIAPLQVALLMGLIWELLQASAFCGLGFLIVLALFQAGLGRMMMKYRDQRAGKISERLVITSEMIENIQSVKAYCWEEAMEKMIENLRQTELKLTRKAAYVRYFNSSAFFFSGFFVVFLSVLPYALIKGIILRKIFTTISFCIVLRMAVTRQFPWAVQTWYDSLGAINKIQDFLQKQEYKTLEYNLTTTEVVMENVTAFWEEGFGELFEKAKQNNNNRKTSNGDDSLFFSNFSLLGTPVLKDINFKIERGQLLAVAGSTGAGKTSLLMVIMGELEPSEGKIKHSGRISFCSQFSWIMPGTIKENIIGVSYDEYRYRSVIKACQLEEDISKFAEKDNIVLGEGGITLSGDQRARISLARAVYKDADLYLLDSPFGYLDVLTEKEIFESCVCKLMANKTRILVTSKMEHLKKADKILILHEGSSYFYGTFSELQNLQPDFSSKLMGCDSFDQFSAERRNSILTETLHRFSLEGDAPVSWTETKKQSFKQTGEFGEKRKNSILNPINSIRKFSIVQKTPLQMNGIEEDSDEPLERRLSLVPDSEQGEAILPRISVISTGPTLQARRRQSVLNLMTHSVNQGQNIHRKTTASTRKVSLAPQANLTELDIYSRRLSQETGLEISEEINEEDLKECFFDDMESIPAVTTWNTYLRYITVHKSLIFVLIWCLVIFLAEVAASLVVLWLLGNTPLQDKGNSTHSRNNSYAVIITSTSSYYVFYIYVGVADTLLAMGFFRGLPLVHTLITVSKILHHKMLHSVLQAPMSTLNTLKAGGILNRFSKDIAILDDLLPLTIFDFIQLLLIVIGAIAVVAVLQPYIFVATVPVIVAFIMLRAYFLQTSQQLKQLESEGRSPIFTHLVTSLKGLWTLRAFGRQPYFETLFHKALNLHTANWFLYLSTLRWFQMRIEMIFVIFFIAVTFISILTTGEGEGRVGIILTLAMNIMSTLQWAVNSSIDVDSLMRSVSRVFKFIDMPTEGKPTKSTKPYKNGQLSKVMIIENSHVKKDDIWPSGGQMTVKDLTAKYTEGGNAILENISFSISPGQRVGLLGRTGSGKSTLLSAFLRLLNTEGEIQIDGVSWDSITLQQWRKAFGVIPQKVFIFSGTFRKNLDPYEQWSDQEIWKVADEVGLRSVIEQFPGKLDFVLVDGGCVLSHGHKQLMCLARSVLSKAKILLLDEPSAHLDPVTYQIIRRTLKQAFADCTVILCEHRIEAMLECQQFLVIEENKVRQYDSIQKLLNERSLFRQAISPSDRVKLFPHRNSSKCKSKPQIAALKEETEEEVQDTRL

Structure (SMILES) | Papp A→B [1] | AUC [2] | CL free [3] | CL free [4] | efflux ratio [5] | EC50 [6] | CL free [7] | clearance [8] | Vd [9] | half-life [10] | CL free [11] | Activity [12] | CLH [13] | bioavailability [14] | EC50 [15] | solubility kinetic [16] | Activity [17] | inhibition (INH) [18] | Activity [19]
Nc1cc(S(=O)(=O)c2ccc(F)cc2)cnc1C(=O)NC[C@@H](O)C(F)(F)F | – | – | 26.7 mL/min/kg | – | – | 7.8 nM | 26.8 mL/min/kg | 2.17 mL/min/kg | 2.9 L/kg | > 15 h | 17 mL/min/kg | – | – | – | – | – | – | – | –
Nc1cc(S(=O)(=O)c2ccc(C(F)(F)F)cc2)cnc1C(=O)N1CCC[C@H]1CO | – | – | – | – | – | > 2000 nM | – | – | – | – | – | – | – | – | – | – | – | – | –
Nc1cc(S(=O)(=O)c2ccc(OC(F)(F)F)cc2)cnc1C(=O)NC[C@@H](O)C(F)(F)F | – | – | 58.3 mL/min/kg | – | – | 3.4 nM | 86.7 mL/min/kg | 1.33 mL/min/kg | 6 L/kg | > 50 h | 36.7 mL/min/kg | – | – | – | – | < 19 µM | 10% | Not Active | –
Nc1cc(S(=O)(=O)c2ccccc2OC(F)(F)F)cnc1C(=O)NC[C@@H](O)C(F)(F)F | – | – | 120 mL/min/kg | – | – | < 0.31 nM | 258 mL/min/kg | 9.83 mL/min/kg | 5.1 L/kg | 6.7 h | 45 mL/min/kg | – | – | – | – | 75 µM (≈ 35.5 µg/mL) | 80% | Not Active | –

The remaining molecules from weak to strong by EC50 [6], led by results:

Papp A→B [1] | AUC [2] | CL free [3] | CL free [4] | efflux ratio [5] | EC50 [6] | CL free [7] | clearance [8] | Vd [9] | half-life [10] | CL free [11] | Activity [12] | CLH [13] | bioavailability [14] | EC50 [15] | solubility kinetic [16] | Activity [17] | inhibition (INH) [18] | Activity [19] | Structure (SMILES)
1 ×10⁻⁶ cm/s | 500 ng·h/mL | 76.7 mL/min/kg | 107 mL/min/kg | 137 | 79 nM | – | – | – | – | – | – | – | – | – | – | – | – | – | NC(=O)c1cc(S(=O)(=O)c2ccc(F)cc2)sc1NC(=O)C1(O)CC1
4 ×10⁻⁶ cm/s | 5600 ng·h/mL | 30 mL/min/kg | 46.7 mL/min/kg | 5 | 26 nM | – | – | – | – | – | – | – | – | – | – | – | – | – | CC(C)(O)C(=O)Nc1sc(S(=O)(=O)c2ccc(F)cc2)cc1C(N)=O
– | 12400 ng·h/mL | 33 mL/min/kg | – | – | 20 nM | 167 mL/min/kg | 2.05 mL/min/kg | 2.7 L/kg | 15.5 h | 10 mL/min/kg | 85% | < 3% | 46% | 478 nM | – | – | – | – | COc1ccc(S(=O)(=O)c2cc(C(N)=O)c(NC(=O)C(C)(C)O)s2)cc1
0.65 ×10⁻⁶ cm/s | – | 1880 mL/min/kg | – | 47 | 17 nM | – | – | – | – | – | 115% | – | – | – | – | – | – | Active | CN(Cc1ccccc1)S(=O)(=O)c1cc(C(N)=O)c(NC(=O)c2ccn[nH]2)s1
– | – | 300 mL/min/kg | – | – | 5 nM | 317 mL/min/kg | 31.7 mL/min/kg | 3.2 L/kg | 1.3 h | 130 mL/min/kg | – | – | – | – | – | – | – | – | Nc1cc(S(=O)(=O)N2CCC(OC(F)(F)F)CC2)cnc1C(=O)NCC(O)C(F)(F)F (stereo not given)
